Source: patent publication US20050048108A1, “Sulphur-containing amphiphilic agents for the transfer of biologically active molecules into cells” (G.O.T. Therapeutics GMBH, priority 2000, published 2005)

Tested on: HeLa (human cervical carcinoma), F98 (rat glioblastoma), IMR90 (human embryonic lung) cell lines
Assay: Transfection of adherent cell lines with pUT 651 plasmid (lacZ / β-galactosidase reporter)
Assay type: cell-based
Conditions: all investigated cell lines, versus Lipofectin, LipofectAMINE, DOTAP and DAC-30
Method: The gene transfer properties of the lipids according to the invention (lipid 9 (Sulfectin A) and lipid 10 (Sulfectin B)) were tested on various cell lines and were compared with the reagents known heretofore (FIGS. 3, 4 and 5). A plasmid coded for β-galactosidase was used as the reporter system. In the trials, the lipids were also mixed with, among other things, the neutral auxiliary lipid 1,2-dioleoyl-sn-glycero-3-phosphoethanolamine (DOPE). […] Among others a β-galactosidase expression up to 10 times higher was found. This is the more surprising in that in most cases (IMR90 and F98 cells) no admixture of an a helper lipid was necessary. With all the commercial lipids, on the other hand, a portion of DOPE was indispensable for an efficient gene transfer. The high gene transfer efficiency of the pure lipid is also advantageous for the production of the gene transfer reagent, since the formulation step of the cationic lipid and auxiliary lipid is omitted. […]
After a transfection time of 24 h, the medium is changed and the cells are incubated for a further 48 h. […] The lysate is treated with chlorophenol red β-galactopyranoside (Roche Diagnostics, 1 mg/ml in HBSS) as a substrate for β-galactosidase, and the optical density at different intervals is determined with a microplate reader (Dynex) (measurement wavelength 540 nm, reference wavelength 630 nm).

For CCCCCCCC/C=C\CCCCCCCC(=O)OCC(CCS(=O)(=O)CCCN)OC(=O)CCCCCCC/C=C\CCCCCCCC.O=C(O)C(F)(F)F (centres unmarked) [lipid 9, 3-[(3,4-dioleoyloxybutyl)-sulfonyl]propyl-1-ammonium trifluoroacetate], the “gene transfer (transfection) efficiency compared with the known lipids” value was “markedly higher efficiency”.
For CCCCCCCC/C=C\CCCCCCCC(=O)OCC(CC[S+]([O-])CCCN)OC(=O)CCCCCCC/C=C\CCCCCCCC.O=C(O)C(F)(F)F (centres unmarked) [lipid 10, 3-[(3,4-dioleoyloxybutyl)-sulfinyl]propyl-1-ammonium trifluoroacetate], the “gene transfer (transfection) efficiency compared with the known lipids” value was “markedly higher efficiency”.
